Experimental data reported in patent publication US20050070601A1, “Psychostimulant Effects of Forskolin Including Anorexia” (CREATIVE COMPOUNDS, LLC, priority 2003, published 2005).
“And” between values parts separate entries of the source, which are not always exact repeats. Equal entries are not always repeated.

Key:
humans = assay: Test of forskolin as anorectic agent in humans; design: species or system human; conditions: in vivo
Procedure: Because nearly all psychostimulants have been or are being used as extremely effective appetite suppressants, the inventors decided to test the hypothesis that forskolin would be an effective anorectic agent. […] This anorectic effect is dose dependent and works increasingly until the dosage of 500 mg per day of forskolin. Most tested individuals noticed the appetite suppression effects above 75 mg per day of forskolin; however, a few individuals noticed slight effects down to 30 mg per day.

[1] = test system: overweight individuals who claimed to have a problem controlling their appetite; assay: Appetite suppression: self-rated level of appetite before and after administration (Example 2); assay type: in vivo, human
Procedure: The forskolin was administered three times per day for five days. Subjects were asked to evaluate the level of their appetite from a scale of 1 to 10 (10 being the greatest). […] Some of the subjects even reported that they felt no desire to eat within 30 minutes after administration even though before administration they felt “extremely hungry”.

Test subjects = assay: Experimenting with higher daily dosages: psychostimulant effect in test subjects; assay type: in vivo, human
Procedure: While experimenting with forskolin in much higher daily dosages, the inventors discovered new and as yet undiscovered uses for forskolin and Coleus forskohli and its extracts. The novel effects became quite evident and noticeable upon administering 150 mg per day of forskolin in the form of a 20% Coleus forskohli extract. […] The dosages of forskolin that precipitate the best psychostimlant properties seem to be above 100 mg but can be below this level for some highly sensitive people.

individuals = assay: Psychostimulant effect: self-rated wakefulness/alertness before and one hour after administration (Example 1); assay type: in vivo, human; conditions: scale of 1 to 10 (10 greatest), one value per subject, average of three days, 100 mg twice daily as 40% Coleus forskohli extract capsules
Procedure: The forskolin was administered one hour after waking and one hour before bedtime. Subjects were asked to evaluate their level of wakefulness/alertness on a scale of 1 to 10 (10 being the greatest) both before administration and one hour after administration. […] All of the subjects perceived an increase in their level of wakefulness/alertness both in the morning and in the evening. These times were chosen due to the fact that most people have a greater degree of sleepiness or a greater degree of having problems with mental alertness during these times of the day.

[2] = scale of 1 to 10 (10 greatest), after dose, one value per subject, average of five days, 100 mg sixty minutes before meals, three times per day, 40% extract capsules
[3] = scale of 1 to 10 (10 greatest), before dose, one value per subject, average of five days, 100 mg sixty minutes before meals, three times per day, 40% extract capsules

C=C[C@@]1(C)CC(=O)[C@]2(O)[C@@]3(C)[C@@H](O)CCC(C)(C)[C@@H]3[C@H](O)[C@H](OC(C)=O)[C@@]2(C)O1 [forskolin, Forskolin]
dosage above which most tested individuals noticed the appetite suppression effects (humans): above 75 mg per day
dosage down to which a few individuals noticed slight appetite suppression effects (humans): ≥ 30 mg per day
dosage until which the dose dependent anorectic effect works increasingly (humans): ≤ 500 mg per day
AB: level of appetite, Breakfast, After Administration [1, 2]: 5 and 3 and 4
AD: level of appetite, Dinner, After Administration [1, 2]: 8 and 3 and 5
AL: level of appetite, Lunch, After Administration [1, 2]: 7 and 3 and 5
BB: level of appetite, Breakfast, Before Administration [1, 3]: 6 and 8 and 4
BD: level of appetite, Dinner, Before Administration [1, 3]: 9 and 10 and 7
BL: level of appetite, Lunch, Before Administration [1, 3]: 9 and 10 and 8
time after administration within which some subjects felt no desire to eat ([1]; some of the subjects, "extremely hungry" before administration): ≤ 30 min
dosages that precipitate the best psychostimulant properties (Test subjects; can be below this level for some highly sensitive people): above 100 mg
untoward central nervous system stimulating effects (jitteriness, nervousness, increased blood pressure, heart rate or respiratory rate) (Test subjects; human, in vivo): did not cause any untoward central nervous system stimulating effects
MBA: level of wakefulness/alertness, morning, before administration (individuals; baseline before dose): 3 (2×) and 2 and 7 (2×)
EBA: level of wakefulness/alertness, evening, before administration (individuals; before evening dose): 6 (2×) and 5 and 7 (2×)
EAA: level of wakefulness/alertness, evening, after administration (individuals; one hour after administration): 7 and 9 and 5 and 10 and 8
MAA: level of wakefulness/alertness, morning, after administration (individuals; one hour after administration): 5 (2×) and 7 and 8 and 10
